Laboratory results reported in the supplement of paper PMC11208160.

Test: recombinant UMI read abundance after kanamycin selection (control-corrected) (log10(CPM+1)); higher = more efficient recombination; extreme values may be limits of the assay; sequences stand for … in AGTGCAGAGAAAATCGGCCAGTTTTCTCTGCCTGCAGTCCGCATGCCGTGGGACCCCTTGGGTTCTAACCTGTTGCCTAGATTTATGCAGCGGACTGCCTTTCTCCCAAAGTGATAAACCGG…AGGTTGGTTTCACT; site = the 11-nt donor
Outline: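 The measure is log10(CPM+1) for recombinant UMIs. These were PCR-amplified across the donor–target junction and sequenced after Escherichia coli carrying a donor and donor-binding-loop pair library and a target plasmid with T7-inducible IS621 bridge recombinase was plated on IPTG (0.07 mM) plus kanamycin or unselected. CPM were averaged over two replicates and scaled by control-derived factors.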
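Also: IS621 bridge recombinase in Escherichia coli cells against a fixed T5 target plasmid.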

Row | Sequence | recombinant UMI read abundance (log10)
1 | AGCCTCGCATGGACCGGTTTTCCCGGTAATCCGTATTTGTT (site AGCCTGGCTAA) | 0.00929
2 | GGTGAACCATGGACCGGTTTTCCCGGTAATCCGTATTTGGG (site GGTGAACCTCC) | 0
3 | CAGAAGCCATGGACCGGTTTTCCCGGTAATCCGTATTTGTT (site CGGAATCCTAA) | 0
4 | CCAGTTGCATGGACCGGTTTTCCCGGTAATCCGTATTTGAT (site CCAGATGCTAT) | 0.00647
5 | TCCACTTCATGGACCGGTTTTCCCGGTAATCCGTATTTGCC (site TCCAGTTCTGG) | 0
6 | CGATCATCATGGACCGGTTTTCCCGGTAATCCGTATTTGCT (site CATTCATCTAG) | 1.44
7 | AACCGTCCATGGACCGGTTTTCCCGGTAATCCGTATTTGAC (site AACCGTCCTAT) | 0
8 | TGGGCGGCATGGACCGGTTTTCCCGGTAATCCGTATTTGGC (site TGGACGGCTGC) | 1.49
9 | TGGGTAACATGGACCGGTTTTCCCGGTAATCCGTATTTGAC (site TGGGTAACTGT) | 1.61
10 | CGTTAGACATGGACCGGTTTTCCCGGTAATCCGTATTTGAG (site CGCTAGACTCT) | 0.501
11 | ATTGTGTCATGGACCGGTTTTCCCGGTAATCCGTATTTGAC (site AGTGTGTCTGT) | 0
12 | AGGAAGTCATGGACCGGTTTTCCCGGTAATCCGTATTTGCG (site AGGAAGTCTCG) | 3.16
13 | TGACCGGCATGGACCGGTTTTCCCGGTAATCCGTATTTGGC (site TGGCCGGCTGC) | 0
14 | GTTAGAACATGGACCGGTTTTCCCGGTAATCCGTATTTGGC (site GTTACAACTGC) | 0
15 | TAAAGTCCATGGACCGGTTTTCCCGGTAATCCGTATTTGTA (site TAAACTCCTTA) | 0.531
16 | CTGTACACATGGACCGGTTTTCCCGGTAATCCGTATTTGCT (site CTATACACTAG) | 2.55
17 | GCTAATACATGGACCGGTTTTCCCGGTAATCCGTATTTGGC (site ACTAATACTGC) | 0
18 | GGCCACGCATGGACCGGTTTTCCCGGTAATCCGTATTTGTT (site GGCCACACTAA) | 0.148
19 | TAGTCTTCATGGACCGGTTTTCCCGGTAATCCGTATTTGGT (site TAGACTTCTAC) | 0.017
20 | CGTTAGACATGGACCGGTTTTCCCGGTAATCCGTATTTGAG (site CGTTAGACTCT) | 1.55
21 | ACCACCGCATGGACCGGTTTTCCCGGTAATCCGTATTTGCG (site ACCACCGCTCG) | 0.455
22 | CAATGCTCATGGACCGGTTTTCCCGGTAATCCGTATTTGAA (site CAATGATCTTT) | 0.389
23 | ACCAGCCCATGGACCGGTTTTCCCGGTAATCCGTATTTGAT (site ACCAGCCCTAT) | 0.0092
24 | CCGTTACCATGGACCGGTTTTCCCGGTAATCCGTATTTGTG (site CCGTTACCTCA) | 0.0136
25 | GCAAAGCCATGGACCGGTTTTCCCGGTAATCCGTATTTGGG (site GCCAAGCCTCC) | 0.00875

Row | Sequence | recombinant UMI read abundance (log10)
26 | AGCTATACATGGACCGGTTTTCCCGGTAATCCGTATTTGAC (site ATCTATACTGT) | 1.85
27 | CTTTACACATGGACCGGTTTTCCCGGTAATCCGTATTTGCT (site CTTTACACTAG) | 1.81
28 | ACATCTACATGGACCGGTTTTCCCGGTAATCCGTATTTGTG (site ACATCTACTCA) | 0.552
29 | GGCGTGGCATGGACCGGTTTTCCCGGTAATCCGTATTTGGT (site GGGGTGGCTAC) | 0.00519
30 | TAGAATACATGGACCGGTTTTCCCGGTAATCCGTATTTGCA (site TAGAATACTAG) | 0
31 | GACGTAACATGGACCGGTTTTCCCGGTAATCCGTATTTGTA (site GACGTAACTTA) | 2.19
32 | CGGAATCCATGGACCGGTTTTCCCGGTAATCCGTATTTGTT (site CGAAATTCTAA) | 0
33 | CGGAATCCATGGACCGGTTTTCCCGGTAATCCGTATTTGTT (site CGGATACCTAA) | 0.0155
34 | GAAGAGTCATGGACCGGTTTTCCCGGTAATCCGTATTTGTT (site GAAGAATCTAA) | 3.37
35 | AACCGTCCATGGACCGGTTTTCCCGGTAATCCGTATTTGAT (site AACCGTTCTAT) | 0.00303
36 | ATCTAGACATGGACCGGTTTTCCCGGTAATCCGTATTTGGG (site ACCTAGACTCC) | 0.00659
37 | GGTACGTCATGGACCGGTTTTCCCGGTAATCCGTATTTGAT (site GGTACGTCTAC) | 0.00659
38 | TATAATTCATGGACCGGTTTTCCCGGTAATCCGTATTTGAC (site TATAATTCTGT) | 0.209
39 | CGATCATCATGGACCGGTTTTCCCGGTAATCCGTATTTGCT (site CCATCAGCTAG) | 0
40 | GGTCCAACATGGACCGGTTTTCCCGGTAATCCGTATTTGTG (site GGTCCAACTTA) | 0.00906
41 | ACATCTACATGGACCGGTTTTCCCGGTAATCCGTATTTGTG (site AAATCTACTCA) | 0.00563
42 | CCTTCTTCATGGACCGGTTTTCCCGGTAATCCGTATTTGGG (site CCTTCTTCTCC) | 0.00401
43 | TCCACCGCATGGACCGGTTTTCCCGGTAATCCGTATTTGCG (site TTCACCGCTCG) | 0.00717
44 | GTTAGGACATGGACCGGTTTTCCCGGTAATCCGTATTTGGC (site GTTAGTACTGC) | 0
45 | CCATTTACATGGACCGGTTTTCCCGGTAATCCGTATTTGCT (site CCCTTTACTAG) | 0
46 | CGATCATCATGGACCGGTTTTCCCGGTAATCCGTATTTGCT (site CGCTCAACTAG) | 0
47 | GGATAGACATGGACCGGTTTTCCCGGTAATCCGTATTTGCA (site GGATAGACTTG) | 2.79
48 | CGTTCATCATGGACCGGTTTTCCCGGTAATCCGTATTTGAT (site CGTTCATCTAT) | 0
49 | CCCCACACATGGACCGGTTTTCCCGGTAATCCGTATTTGTA (site CCCCTCACTTA) | 0.0137
50 | GGATACACATGGACCGGTTTTCCCGGTAATCCGTATTTGCC (site GGATATACTGG) | 0

Row | Sequence | recombinant UMI read abundance (log10)
51 | GGTCCAACATGGACCGGTTTTCCCGGTAATCCGTATTTGTA (site GGTCCATCTTA) | 0.583
52 | CAAGCGCCATGGACCGGTTTTCCCGGTAATCCGTATTTGTG (site CAAGTGCCTCA) | 0.0157
53 | CCCCGTACATGGACCGGTTTTCCCGGTAATCCGTATTTGCT (site CGCCGTACTAG) | 0
54 | CCCCACACATGGACCGGTTTTCCCGGTAATCCGTATTTGAA (site CCCCACACTTG) | 0
55 | ACCCAGACATGGACCGGTTTTCCCGGTAATCCGTATTTGGG (site ACCCAGACTCC) | 0.036
56 | CGGAATCCATGGACCGGTTTTCCCGGTAATCCGTATTTGTT (site CGGTATCCTGA) | 0
57 | TTGCATGCATGGACCGGTTTTCCCGGTAATCCGTATTTGGT (site TTGCATGCTAC) | 0.317
58 | ACGTAGACATGGACCGGTTTTCCCGGTAATCCGTATTTGGG (site ACATAGACTCC) | 0.351
59 | CGGAATCCATGGACCGGTTTTCCCGGTAATCCGTATTTGTT (site AGGAAACCTAA) | 0
60 | GAGATCACATGGACCGGTTTTCCCGGTAATCCGTATTTGAT (site GAGCTCACTAT) | 0.00919
61 | AGCCTATCATGGACCGGTTTTCCCGGTAATCCGTATTTGTT (site AGCCTAACTAA) | 0.0449
62 | CAATTCCCATGGACCGGTTTTCCCGGTAATCCGTATTTGAT (site CAATTCCCTAC) | 0
63 | AAGGTGCCATGGACCGGTTTTCCCGGTAATCCGTATTTGAT (site AAGGTGCCTAT) | 0.438
64 | CGATCATCATGGACCGGTTTTCCCGGTAATCCGTATTTGCT (site GGTTCATCTAG) | 0
65 | TTTGTTCCATGGACCGGTTTTCCCGGTAATCCGTATTTGGT (site GTTGTTCCTAC) | 0.0225
66 | GACAAACCATGGACCGGTTTTCCCGGTAATCCGTATTTGGT (site TACAAACCTAC) | 0
67 | GGGAATACATGGACCGGTTTTCCCGGTAATCCGTATTTGAG (site GGGAATACTCT) | 1.35
68 | ACCGTGGCATGGACCGGTTTTCCCGGTAATCCGTATTTGGA (site ACCGTGGCTTC) | 0.325
69 | TGTATCGCATGGACCGGTTTTCCCGGTAATCCGTATTTGCT (site TGTATCGCTAG) | 1.57
70 | CAAGTAGCATGGACCGGTTTTCCCGGTAATCCGTATTTGCT (site CAAGAAGCTAG) | 0
71 | ATAGTAGCATGGACCGGTTTTCCCGGTAATCCGTATTTGCA (site ACAGTATCTTG) | 0.993
72 | CCTGTAACATGGACCGGTTTTCCCGGTAATCCGTATTTGCA (site CCTGTAACTTG) | 0
73 | GCTAAAGCATGGACCGGTTTTCCCGGTAATCCGTATTTGAT (site CCTAAAGCTAT) | 1.04
74 | GTAGGCACATGGACCGGTTTTCCCGGTAATCCGTATTTGTA (site GTATGCACTTA) | 0.019
75 | TGTATTTCATGGACCGGTTTTCCCGGTAATCCGTATTTGGG (site TGTATTTCTCC) | 0.402
